Results reported in US9833439B2, “ERK inhibitors for use in treating spinal muscular atrophy” (UNIVERSITE PARIS DESCARTES, priority 2011, dated 2017).

What was measured:
AKT = details: SMA mice, oral treatment
SMA-like mice [1] = assay: Life span of severe SMA-like mice; type: in vivo; details: oral treatment
SMN protein = type: in vivo, mice; details: oral treatment
SMA-like mice [2] = assay: Body weight of SMA-like mice; type: in vivo; details: oral treatment
Procedure: The knockout-transgenic SMA-like mice (Smn^−/−, SMN2^+/+) were purchased from the Jackson Laboratory (Bar Harbor, Me.) and genotyped as previously described^15. […] The control mice were heterozygous knock-out for Smn with the human SMN2 transgene (Smn^−/+, to SMN2^+/+). […] These mice were compared to control and SMA-like mice either injected from P1 with 0.5 μl/g of 0.9% NaCl 1% DMSO dyed in blue Evans or orally treated with 2 μl/g of 0.9% NaCl 1% DMSO. Body weight and life span recordings were performed every day until the death of the animal. The animals were considered as dead when mice were no longer able to stand up 20 sec after having been placed on their sides.

SMN transcripts = details: very severe SMA-like mice; splicing pattern not modified; cited from earlier work
[3] = system: SMN2 promoter CRE sites 1 and 2; assay: ChIP of Phospho-Elk-1 and Phospho-CREB on SMN2 promoter CRE sites in ventral lumbar spinal cord; type: in vivo, mice; details: SMA spinal cords, intrathecal NMDA
Description: The knockout-transgenic SMA-like mice (Smn^−/−, SMN2^+/+) were purchased from the Jackson Laboratory (Bar Harbor, Me.) and genotyped as previously described^15. Vehicle-treated group, NMDA-treated group, U0126-treated group and AZD6244-treated group of type 1 SMA-like mice were randomly constituted in a blind systematic manner to minimize bias. The control mice were heterozygous knock-out for Smn with the human SMN2 transgene (Smn^−/+, to SMN2^+/+).
In order to evaluate phospho-Elk-1 and phospho-CREB role on Smn2 promoter, P1 neonatal control and SMA-like mice, were either injected intrathecally with 5 pmol of N-methyl-D-aspartic Acid 100 μM (NMDA, Sigma, Saint Quentin Fallavier, France) in 0.5 μl/g of 0.9% NaCl dyed in blue Evans per gram. […]
Ventral lumbar Spinal Cord samples were chopped into small pieces with a scalpel and were fixed for 15 min with 1% formaldehyde. […] Lysates were cleared by centrifugation and DNA concentration was determined using a nanodrop spectrophotometer. […]
Quantitative real time PCR was performed with standard protocols using SYBR®Green ROX Mix (ABgene, Courtaboeuf, France) as a fluorescent detection dye in ABI PRISM® 7000 in a final volume of 10 μl which also contains 300 nM of primers (Operon, Cologne, Germany)
The relative amounts of DNA in samples were determined on the basis of the threshold cycle for each PCR product (Ct).

**Q.** What does the source list for `Cn1cnc2c(F)c(Nc3ccc(Br)cc3Cl)c(C(=O)NOCCO)cc21` [Selumetinib, 6-(4-bromo-2-chloroanilino)-7-fluoro-N-(2-hydroxyethoxy)-3-methylbenzimidazole-5-carboxamide]?
**A.** AKT activation (AKT): activation; life span of SMA mice (SMA-like mice [1]): remarkable increase; SMN expression in the spinal cord of SMA mice (SMN protein): activation; body weight (SMA-like mice [2]): progressive gain

**Q.** With `CN[C@H](CC(=O)O)C(=O)O` [NMDA, N-methyl-D-aspartic Acid] as the molecule, how does the “total amount of SMN transcripts in the SMA spinal cord” value (SMN transcripts) read?
**A.** The value was “increased”.

**Q.** And the “ratio of CREB and Elk-1 binding on the CRE sites” value [3]?
**A.** Its value is “completely reversed”.
